We go through five molecules from patent publication US20240239750A1, “PHARMACEUTICAL PREPARATION” (Aerie Pharmaceuticals, Inc., priority 2021, published 2024).

What all share (format): physicochemical
Series [1] can be described thus: 7 day stability study of solid forms (XRPD, HPLC). Conditions: stored 7 days; 40° C./75% RH (open vial) according to b80 and FIG. 14 legend. Here is the method:
Crystalline form 5 of Compound 1 mono-tosylate was obtained during a 7 day stability study for crystalline forms 1 and 4. In the study, 3×20 mg (0.04 mmol) of crystalline forms 1 and 4, and amorphous Compound 1 mono-tosylate, were individually weighted into 1.5 mL vials and stored under the following conditions for 7 days: • (i) 40° C./75% relative humidity (RH) (open vial); • (ii) 80° C./ambient humidity (sealed vial); and • (iii) Ambient conditions (open vial).
After 7 days, any remaining solids recovered were analyzed by XRPD to assess form purity and HPLC changes in chemical purity. […] More crystalline form 5 was prepared by storing 100 mg of crystalline form 4 […] for approximately 4 days.

Series [2] is described as follows: TG/DSC thermal analysis. Conditions: for Enthalpy / Onset Temperature / Signal Temperature: TG/DSC signal of Compound 1 mono-tosylate solid form; for onset of thermal decomposition: TG/DSC, 10° C./min. As to the method: Thermogravimetric Analysis/Differential Scanning Calorimetry (TGA/DSC): Approximately, 5-10 mg of material was added into a pre-tared open aluminum pan and loaded into a TA Instruments Discovery SDT 650 Auto—Simultaneous DSC and held at room temperature. The sample was then heated at a rate of 10° C./min from 30° C. to 350° C. during which time the change in sample weight was recorded along with the heat flow response (DSC). Nitrogen was used as the sample purge gas, at a flow rate of 200 cm^3/min.
Thermogravimetric/Differential Thermal Analysis (TG/DTA): Approximately, 5-10 mg of material was added into a pre-tared open aluminum pan and loaded into a TA Instruments Discovery SDT 650 Auto—Simultaneous DSC and held at room temperature. The sample was then heated at a rate of 10° C./min from 30° C. to 350° C. during which time the change in sample weight was recorded along with the heat flow response (DSC). Nitrogen was used as the sample purge gas, at a flow rate of 200 cm^3/min. […]
A general note: Differential scanning calorimetry records heat flow against a reference as temperature is scanned.

Series [3] in a line: Polymorph stability study (competitive slurrying). As to the method: To prepare solutions saturated with Compound 1 mono-tosylate for competitive slurrying, 2×100 mg (0.20 mmol) amorphous Compound 1 mono-tosylate was weighed into 2×4 mL vials. To each vial, 500 μL of ethanol was added and the vials were manually shaken for a few seconds. Complete dissolution was noted. A further about 20 mg of amorphous Compound 1 mono-tosylate was added to each vial and the vials were agitated for about 3 hours: one vial at ambient temperature and one vial at 60° C. After about 3 hours, both were solutions. More amorphous Compound 1 mono-tosylate (about 30 mg) was added to each vial and they were shaken at their respective temperatures again for about another hour. Both appeared to be slurries. To remove the excess solids, the slurries were filtered centrifugally and the mother liquors each placed into separate, clean vials. […] After 48 hours, the solids were recovered via centrifugal filtration and analyzed by XRPD. The XRPD plate containing the solids was then dried at 40° C. for 2 hours and re-analyzed.
To prepare a solution saturated with amorphous Compound 1 mono-tosylate for competitive slurrying, 50 mg (0.10 mmol) of amorphous Compound 1 mono-tosylate was weighed into a 4 mL vial. […] After 72 hours, the solids were recovered via centrifugal filtration and analyzed by XRPD.

A short description of series [4]: Drying of solids and re-analysis by XRPD (form conversion). Here is the method:
Any new solids which produced patterns by XRPD were dried at 40° C. for 24 hours before being analyzed again. Potential New Patterns were also analyzed by ^1H NMR, PLM and TG/DSC.
To prepare crystalline forms 1 and 4 of Compound 1 mono-tosylate, 2×500 mg (1.01 mmol) of amorphous Compound 1 mono-tosylate was placed into 20 ml vials. To each of these vials, 12 ml of solvent (dichloromethane for crystalline form 1 and tetrahydrofuran for crystalline form 4) was added to prepare slurries. Volumes/mass used were a direct scale-up from the primary screen discussed above. The slurries were thermally cycled (with agitation) between ambient temperature and 40° C. (4-hour cycles at each condition) for 72 hours. Post-thermal cycling, an aliquot of solid was removed from each vial using a micro-spatula and analyzed by XRPD to confirm that the desired form was produced. The remainder of each slurry was then filtered by Buchner filtration. The solids were dried on the filter bed for no longer than 1 minute before being transferred to pre-weighed 20 ml vials. The solids were then dried under vacuum at ambient temperature for 2 hours. Another aliquot of each solid was analyzed by XRPD post-drying. […] As such, the solids were transferred to an oven at 40° C. (ambient pressure) and subsequently dried for approximately 18 hours. […] Crystalline form 1 yield: 86.1%. Crystalline form 4 yield: 84.2%.

The mark [5] stands for this setting: listed as Form 6, mono-tosylate salt.
Setting [6] is: listed as Amorphous, mono-tosylate salt.

Where “and” joins values, the source holds several entries; their conditions need not be identical. Identical values can stand only once.

As for `Cc1ccc(S(=O)(=O)O)cc1.NC[C@@H](C(=O)Nc1ccc2cnccc2c1)c1ccc(CO)cc1` [crystalline form 4, alpha-(aminomethyl)-4-(hydroxymethyl)-N-6-isoquinolinyl-(S)-benzeneacetamide mono-tosylate salt], in series [1], the “crystalline form found by XRPD after 7 day stability study” value was “converted into a new crystalline form: crystalline form 5”. In series [2] (listed as Form 4, mono-tosylate salt), the Enthalpy was 148.3 J/g and 126.6 J/g.
Turning to `Cc1ccc(S(=O)(=O)O)cc1.NC[C@@H](C(=O)Nc1ccc2cnccc2c1)c1ccc(CO)cc1` [crystalline form 6, alpha-(aminomethyl)-4-(hydroxymethyl)-N-6-isoquinolinyl-(S)-benzeneacetamide mono-tosylate salt], the “form after drying of the recovered solids” value in series [3] (dried at 40° C. for 2 hours) is on record as “retained on drying”. For the same molecule, in series [2] (setting [5]), the Enthalpy was found to be 165.0 J/g, the “Onset Temperature” value was 196.2 °C and the “Signal Temperature” value is 201.5 °C. The “stability of the form (conclusion from thermal and NMR analyses)” value in series [2] (no loss in mass on heating prior to melting/decomposition) was “stable anhydrous form”.
As for `Cc1ccc(S(=O)(=O)O)cc1.NC[C@@H](C(=O)Nc1ccc2cnccc2c1)c1ccc(CO)cc1` [crystalline form 1, alpha-(aminomethyl)-4-(hydroxymethyl)-N-6-isoquinolinyl-(S)-benzeneacetamide mono-tosylate salt], the “form recovered (XRPD) after competitive slurrying” value in series [3] (forms 1, 4 and 5 together in saturated ethanol, 48 hours, ambient temperature and 60° C.) is recorded as “New crystalline form 6 was observed”. In addition, in series [2] (mono-tosylate salt), the “onset of thermal decomposition” value was found to be 189 °C.
For the molecule `Cc1ccc(S(=O)(=O)O)cc1.NC[C@@H](C(=O)Nc1ccc2cnccc2c1)c1ccc(CO)cc1` [amorphous Compound 1 mono-tosylate, alpha-(aminomethyl)-4-(hydroxymethyl)-N-6-isoquinolinyl-(S)-benzeneacetamide mono-tosylate salt], in series [2] (setting [6]), the Enthalpy stood at 94.1 J/g, the “Onset Temperature” value is 184.0 °C and the “Signal Temperature” value is 202.1 °C. Moreover, in series [2] (listed as Amorphous Compound 1 Mono-Tosylate, mono-tosylate salt), the “onset of thermal decomposition” value is on record as “event associated with decomposition observed (onset 184° C.)”. The “onset of thermal decomposition” value in series [2] (listed as amorphous Compound 1, mono-tosylate salt) came out at 184 °C. For the same molecule, in series [2] (listed as amorphous material, mono-tosylate salt), the “onset of thermal decomposition” value is “about 184 °C”.
Regarding `Cc1ccc(S(=O)(=O)O)cc1.NC[C@@H](C(=O)Nc1ccc2cnccc2c1)c1ccc(CO)cc1` [crystalline form 3, alpha-(aminomethyl)-4-(hydroxymethyl)-N-6-isoquinolinyl-(S)-benzeneacetamide mono-tosylate salt], the “form conversion on drying” value is recorded as “convert to crystalline form 4” in series [4] (drying at 40° C. for approximately 24 hours) and “converted to crystalline form 4” in series [4] (oven at 40° C. (ambient pressure), approximately 18 hours). The form after drying result in series [4] (under vacuum at ambient temperature for 2 hours) is “crystalline form 3 remained also”.
